Where two headings read alike, the source gives them in different places.

One data set deals with H3K27me3 mark. In words: H3K27me3 Alpha Hela Assay (AlphaLISA). The settings on record: Hela cells, 72 hrs; read-out: EZH2 Cell H3K27me3 Alpha HeLa (EC50 K27me3). Type of data set: cell-based. An outline of the steps:
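HeLa cells at 1,000/well were treated with ten 3-fold compound doses for 72 h at 37 °C. After lysis and histone extraction, H3K27me3 was detected by AlphaLISA with anti-K27me3 acceptor beads, biotinylated anti-H3 (C-ter) antibody (3 nM final) and streptavidin donor beads (20 μg/mL final). Signals were normalized to DMSO and curve-fitted for EC50.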
In general terms: In Alpha technology, singlet oxygen from a donor bead excites a nearby acceptor bead.

Data set [1] can be described thus: In vitro metabolism, mouse liver microsomes. Format: in vitro ADME. The settings on record: 10 μM compound, 0.7 mg protein/mL, read-out: intrinsic clearance. On the procedure: (§1) The in vitro metabolism of compound 21 was evaluated by disappearance of compound in mouse, rat, dog and human liver microsomes at 10 μM compound concentration.
(§2) Data is expressed in μL/min/mg protein.
(Microsomes from liver hold many membrane-bound enzymes, among them those of drug oxidation.)

Data set [2] can be described thus: In vitro metabolism, dog liver microsomes. Format: in vitro ADME. The settings on record: 10 μM compound, 0.7 mg protein/mL, read-out: intrinsic clearance. The protocol: as §1, §2
Data set [3] in a line: Mean plasma and tumor concentration, 7-day study in SCID mice. Type of data set: in vivo. The note with it: mouse, po, female SCID mice.

As a reminder, the EC50 is the midpoint of the concentration-response curve. In the case of `COc1cc(C)[nH]c(=O)c1CNC(=O)c1c(C)n(C(C)C2CCN(C)C(C(F)(F)F)C2)c2ccccc12` (single isomer, unassigned) [Compound 21, N-((4-methoxy-6-methyl-2-oxo-1,2-dihydropyridin-3-yl)methyl)-2-methyl-1-(1-(1-methyl-2-(trifluoromethyl)piperidin-4-yl)ethyl)-1H-indole-3-carboxamide], the EC50 in the data set on H3K27me3 mark was < 400 nM. Further, the microsomal CLint at 10 μM amounted to 55 µL/min/mg in data set [1] and 35 µL/min/mg in data set [2]. The concentration at 7 day stood at 280 ng/mL in data set [3] (plasma, 100 mg/kg P.O. BID, read-out: Mean Plasma Conc); 1600 ng/mL in data set [3] (plasma, 200 mg/kg P.O. BID, read-out: Mean Plasma Conc); 451 ng/g in data set [3] (tumor, 100 mg/kg P.O. BID, read-out: Mean Tumor Conc); 693 ng/g in data set [3] (tumor, 200 mg/kg P.O. BID, read-out: Mean Tumor Conc).

The values above are taken from US20180037568A1, “MODULATORS OF METHYL MODIFYING ENZYMES, COMPOSITIONS AND USES THEREOF” (Constellation Pharmaceuticals, Inc., priority 2015, published 2018).
